Data from patent publication US9258995B2, “Organ cold storage composition and methods of use” (BOARD OF TRUSTEES OF THE UNIVERSITY OF ARKANSAS, priority 2009, dated 2016).

Columns and labels:
[1] = tested on: mitochondrial respiratory complex II; experiment: Mitochondrial respiratory complex activity, rat kidney mitochondria after CS; details: rat kidneys, 4-h CS, 100 μM
Procedure: (§1) All animals were treated according to the National Institutes of Health Guide for the Care and Use of Laboratory Animals and the University of Arkansas for Medical Sciences Institutional Animal Care and Use Committee guidelines. Male Fischer 344 inbred rats (Charles Rivers Laboratories, Inc., Wilmington, Mass.) weighing between 250 and 300 g were anesthetized with ethrane, followed by shaving and prepping with betadine. […] Bulldog clamps were placed on the aorta and vena cava (proximal and distal to the renal vessels) to prevent blood flow to the kidneys. A 22-gauge surgical needle was used to puncture the rat's aorta to flush the renal grafts with saline (10 ml per kidney) using a small catheter. Once the kidneys started to turn light brown (perfusion), another vent was formed in the vena cava to allow blood flow from the kidneys. Once both kidneys were completely flushed, the right kidney was recovered and served as a control (group 1), and the left kidney was exposed to CS alone for 4 h at 4° C. (group 2). In additional experiments, kidneys were flushed with saline through the aorta using a small catheter followed by flushing the right kidney with saline containing MitoQ (100 μM) and the left kidney with saline containing DecylTPP (100 μM) (10 ml per kidney). Tissues were recovered and stored in CS+MitoQ (100 μM; right kidney) or CS+DecylTPP (100 μM; left kidney) for 4 h at 4° C. (groups 3 and 4, respectively). A thin middle section from all of the kidneys were cut and immediately fixed in 10% formalin before being embedded in paraffin for sectioning (4 μm) and histological evaluation. The remaining portion of the kidneys were quickly frozen in liquid nitrogen and stored in −80° C. until needed for biochemistry analyses.
(§2) NRK cell and rat kidney mitochondria were isolated by centrifugation on a sucrose density gradient. The activity of mitochondrial respiratory complexes I, II, III, or IV were assayed spectrophotometrically using 100 μg of mitochondrial protein at 30° C. as previously described.

[2] = tested on: mitochondrial respiratory complex I; experiment: as above; details: rat kidneys, 4-h CS, 100 μM
Procedure: as §1, §2

NRK cells = experiment: Nitrotyrosine immunocytochemistry, CS plus rewarming; format: cell-based, rat; details: 4-h CS plus overnight (18 h) RW, 1 μM added during CS
Procedure: Normal rat kidney proximal tubular cells (NRK-52E; American Type Culture Collection, Manassas, Va.) were maintained in six-well 100 or 150-mm, or 150-mm plates in a humidified incubator gassed with 5% CO2 and 95% air at 37° C. in DMEM (Invitrogen, Carlsbad, Calif.) containing 5% fetal calf serum (FCS). Cells were grown to 60% confluence and divided into four treatment groups: 1) untreated (Untx), 2) CS, 3) CS+MitoQ, and 4) CS+DecylTPP. Untreated cells remained at 37° C. in DMEM containing 5% FCS (group 1). CS was initiated by washing cells with cold PBS (Invitrogen) twice and storing them in UW/Viaspan solution alone (4 h at 4° C.) (group 2), CS+MitoQ (1 μM) (group 3), or CS+DecylTPP (1 μM) (group 4). In separate experiments, cells were exposed to CS plus RW by replacing UW solution alone or UW solution containing MitoQ or DecylTPP with DMEM containing 5% FCS overnight (18 h at 37° C.).
NRK cells (groups 1-4) were assessed for nitrotyrosine formation as previously described. […] Nitrotyrosine staining was evaluated and captured with equal exposure times using a Nikon Eclipse 800 microscope (40×oil). Images were quantified by averaging the mean intensity fluorescence of five random cells in three different fields using Nikon N is Elements software. Renal tissue sections were assessed for the presence of nitrotyrosine protein adducts by nitrotyrosine immunohistochemistry. […]

COC1=C(OC)C(=O)C(CCCCCCCCCC[P+](c2ccccc2)(c2ccccc2)c2ccccc2)=C(C)C1=O [MitoQ, mitoquinone]
complex II inactivation [1]: protected
complex I inactivation [2]: protected
nitrotyrosine staining during CS.RW (NRK cells): attenuated nitrotyrosine staining significantly
